Laboratory results: patent US4073885A (The United States of America as represented by the …, priority 1976, dated 1978)

Columns and labels:
opiate receptor [1] = assay: Brain enzymatic inactivation as assessed by opiate receptor binding inhibition
Description: Male rats weighing 180-220 g (Sprangue-Dawley) were decapitated and each brain with the cerebellum removed was homogenized in 150 ml of ice-cold standard buffer (0.05 M Tris-HCl, ph 7.4 at 37°). After centrifugation at 4° at 12,000 × g, the membranes were reconstituted in standard buffer. After recentrifugation, each brain was suspended in 10 ml of the standard buffer.
Aliquots of the freshly prepared membrane preparation (100 μl) were incubated for 1 hr at 0° with 100 mM NaCl in a final volume of 0.5 ml with ^3 H!naloxone (Amersham-Searle, 34 Ci/mmol) in a concentration of 1.3 nM (20,000 cpm). After rapid filtration and washing with two 7-ml portions of ice-cold standard buffer, membrane-laden filters were transferred and counted at 40-45% efficiency at least 6 hours after shaking with detergent scintillation fluor (Aquasol, New England Nuclear).
The ability of the blood inhibitory factor eluted from the thin-layer plate to be degraded by enzymes present in brain was examined by incubating the blood substance with membranes or supernatant fluid from rat brain, terminating the enzyme action by boiling, and subsequently adding the product to the opiate receptor assay (see Table 1).
Rat brains were homogenized in 100 volumes (wt/vol) of standard buffer an
the particulate fraction and supernatant fluid were obtained by
centrifugation for 10 min. at 40,000 × g. After incubation under th
specified conditions in a total volume of 1 ml with met-enkephalin or
the supernatant fluid were assessed for inhibition in the standard opiate

[2] = Chang et al., cited from earlier work
opiate receptor [3] = assay: Opiate receptor assay ([3H]naloxone binding, rapid filtration, rat brain membranes); details: 100 nM
rat = assay: Assessment of analgesia: rat tail-flick test after micro-injection into periaqueductal gray matter; format: in vivo
Description: Eight rats were stereotaxically implanted with chronic indwelling cannulae guides constructed from 23 gauge TW stainless steel tubing. […] Testing was initiated approximately 1 week following surgery. The antinociceptive actions of morphine and anodynin were assessed using a modification of the D'Armour and Smith paradigm in which the latency for a rat to remove its tail from under a radiant heat source is measured in seconds. Baseline "tail-flick" latencies were always determined approximately 30 minutes prior to a drug or control injection by four trials separated by 10 sec.
The solutions were injected into the central gray matter with 30 guage injectors which extended 2 mm past the tip of the guide cannula. The injection rate was 15 μl/min. Testing for antinociception was initiated immediately after an injection. Animals were tested at 1-min. intervals for 5 min. and then at 10, 15, 30, and 60 min. At the end of the study, all animals were sacrificed and their brains were prepared following standard histological procedures to localize cannulae placements.

Structure (SMILES): CSCC[C@H](NC(=O)[C@H](Cc1ccccc1)NC(=O)CNC(=O)CNC(=O)[C@@H](N)Cc1ccc(O)cc1)C(=O)O [Net-Enkephalin, H-Tyr-Gly-Gly-Phe-Met-OH]
- % Inhibition Stereospecific Binding (opiate receptor [1]; pre-incubation: Buffer, 1 hr, 37°): 65%
- % Inhibition Stereospecific Binding (opiate receptor [1]; pre-incubation: rat brain particulate fraction, 0.25 hr, 37°): 39%
- % Inhibition Stereospecific Binding (opiate receptor [1]; pre-incubation: rat brain particulate fraction, 1 hr, 0°): 65%
- % Inhibition Stereospecific Binding (opiate receptor [1]; pre-incubation: rat brain particulate fraction, 1 hr, 37°): 2%
- % Inhibition Stereospecific Binding (opiate receptor [1]; pre-incubation: rat brain supernatant fluid, 1 hr, 37°): 1%

Structure (SMILES): CC(C)C[C@H](NC(=O)[C@H](Cc1ccccc1)NC(=O)CNC(=O)CNC(=O)[C@@H](N)Cc1ccc(O)cc1)C(=O)O [enkephalin]
- Loss of opiate receptor inhibitory activity by brain enzymes (opiate receptor [1]; incubation with membranes or supernatant fluid from rat brain): completely and rapidly reversed
- destruction in the brain [2]: rapidly destroyed
- time after micro-injection at which analgesia disappears completely [2]: 1 to 2 min
- dose required to elicit analgesia relative to morphine ([2]; micro-injection): at least 40 times

Structure (SMILES): C=CCN1CC[C@@]23CCCC[C@@H]2[C@@H]1Cc1ccc(O)cc13 [dextrallorphan]
- effect on 3H-naloxone binding (control incubation) (opiate receptor [3]): did not significantly reduce binding

Structure (SMILES): CN1CC[C@]23c4c5ccc(O)c4O[C@H]2[C@@H](O)C=C[C@H]3[C@H]1C5 [morphine]
- antinociceptive action after pretreatment with naloxone (rat; 20 mg/kg naloxone intraperitoneally, 15 min prior): blocked
- behavioral effect (immobility) (rat; central gray micro-injection in rats): stuperous immobility
